Measured values from ChEMBL document CHEMBL5335868, “Exploring Scaffold Hopping for Novel 2-(Quinolin-4-yloxy)acetamides with Enhanced Antimycobacterial Activity” (ACS Med Chem Lett, 2024).
≈ marks a conversion by molar mass, not a printed value.

Experiments:
[1] = tested on: Mycobacterium tuberculosis; assay: Antibacterial activity against Mycobacterium tuberculosis H37Rv assessed as bacterial growth inhibition measured after 7 days by resazurin based assay; type: functional; conditions: 168 h, time 7 day
[2] = Chemical stability of compound at pH 7.4 assessed as compound remaining at 10 uM incubated for 24 hrs by HPLC-MS/MS analysis; type: physicochemical; conditions: buffer, read-out: Stability
[3] = Metabolic stability in rat liver microsomes assessed as half life at 1 mg/ml measured for 30 mins in presence of […] by HPLC-MS/MS analysis; type: ADME, Microsome
[4] = Solubility of compound at pH 7.4 at 1 mg incubated for 4 hrs by LC analysis; type: physicochemical
[5] = Cytotoxicity against African green monkey Vero cells incubated for 72 hrs by MTT assay; type: toxicity, cell-based; conditions: chlorocebus sabaeus
[6] = Solubility of compound at pH 1.2 at 1 mg incubated for 4 hrs by LC analysis; type: physicochemical
[7] = Cytotoxicity against human HepG2 cells incubated for 72 hrs by NRU assay; type: toxicity, cell-based
[8] = Cytotoxicity against African green monkey Vero cells incubated for 72 hrs by NRU assay; type: toxicity, cell-based; conditions: chlorocebus sabaeus
[9] = Chemical stability of compound at pH 9.1 assessed as compound remaining at 10 uM incubated for 24 hrs by HPLC-MS/MS analysis; type: physicochemical; conditions: buffer, read-out: Stability
[10] = Cytotoxicity against human HepG2 cells incubated for 72 hrs by MTT assay; type: toxicity, cell-based
[11] = Permeability of compound at 10 uM measured after 5 hrs by PAMPA assay; type: ADME; conditions: read-out: permeability
[12] = Chemical stability of compound at pH 1.2 assessed as compound remaining at 10 uM incubated for 24 hrs by HPLC-MS/MS analysis; type: physicochemical; conditions: buffer, read-out: Stability
[13] = tested on: Mycobacterium tuberculosis; assay: Antibacterial activity against H37Rv infected in mouse RAW264.7 cells assessed as reduction in bacterial load by measuring colony forming units per well at 2.5 uM measured for 5 days by plate counting method (Rvb ~ 1.25 log10CFU); type: functional; conditions: time 5 day
[14] = tested on: Mycobacterium tuberculosis; assay: Antibacterial activity against H37Rv infected in mouse RAW264.7 cells assessed as reduction in bacterial load by measuring colony forming units per well at 2.5 uM measured after 5 days by plate counting method (reference value: 4.19 +/- 0.41 log10CFU); type: functional; conditions: time 5 day

## COc1ccc2nc(C)cc(OCC(=O)Nc3ccc(N4CCCCC4)cc3)c2c1
[1]
  MIC: 0.09 µM (≈ 0.0365 µg/mL)

## CCc1cc(OCC(=O)Nc2ccc(N3CCC(c4ccc(OC(F)(F)F)cc4)CC3)cc2)c2cc(OC)ccc2n1
[1]
  MIC: 2.1 µM (≈ 1.22 µg/mL)

## COc1ccc2nc(C)cc(OCC(=O)Nc3ccc(N4CCC(c5ccc(OC(F)(F)F)cc5)CC4)cc3)c2c1
[2]
  remaining at 24 h, 10 µM: 85.3%
[3]
  half-life: 21 min
[4]
  solubility at 4 h: 2190 µM (≈ 1240 µg/mL)
[1]
  MIC: 0.02 µM (≈ 0.0113 µg/mL)
[5]
  CC50 at 72 h: > 10 µM
[6]
  solubility at 4 h: 20 µM (≈ 11.3 µg/mL)
[7]
  CC50 at 72 h: > 10 µM
[8]
  CC50 at 72 h: > 10 µM
[9]
  remaining at 24 h, 10 µM: 96.8%
[10]
  CC50 at 72 h: > 10 µM
[11]
  Papp at 5 h, 10 µM: 0.16 ×10⁻⁶ cm/s
[12]
  remaining at 24 h, 10 µM: 100%

## Cc1cc(OCC(=O)Nc2ccc(N3CCC(c4ccccc4)CC3)cc2)c2cc(Br)ccc2n1
[2]
  remaining at 24 h, 10 µM: 93.9%
[3]
  half-life: 76.4 min
[4]
  solubility at 4 h: 2640 µM (≈ 1400 µg/mL)
[1]
  MIC: 0.02 µM (≈ 0.0106 µg/mL)
[5]
  CC50 at 72 h: > 10 µM
[6]
  solubility at 4 h: > 1880 µM
[7]
  CC50 at 72 h: > 10 µM
[8]
  CC50 at 72 h: > 10 µM
[9]
  remaining at 24 h, 10 µM: 100%
[10]
  CC50 at 72 h: > 10 µM
[11]
  Papp at 5 h, 10 µM: 0.35 ×10⁻⁶ cm/s
[12]
  remaining at 24 h, 10 µM: 100%

## COc1ccc2nc(C)cc(OCC(=O)Nc3ccc(N4CCC(c5ccccc5)CC4)cc3)c2c1
[2]
  remaining at 24 h, 10 µM: 96.3%
[3]
  half-life: 7.1 min
[4]
  solubility at 4 h: 2220 µM (≈ 1070 µg/mL)
[1]
  MIC: 0.02 µM (≈ 0.00963 µg/mL)
[5]
  CC50 at 72 h: > 10 µM
[6]
  solubility at 4 h: 410 µM (≈ 197 µg/mL)
[7]
  CC50 at 72 h: > 10 µM
[8]
  CC50 at 72 h: > 10 µM
[9]
  remaining at 24 h, 10 µM: 22.6%
[10]
  CC50 at 72 h: > 10 µM
[11]
  Papp at 5 h, 10 µM: 0.001 ×10⁻⁶ cm/s
[12]
  remaining at 24 h, 10 µM: 52.4%

## O=C(COc1cc(C(F)(F)F)nc2ccc(Br)cc12)Nc1ccc(N2CCC(c3ccccc3)CC2)cc1
[1]
  MIC: 34.2 µM (≈ 20 µg/mL)

## Cc1cc(OCC(=O)Nc2ccc(N3CCC(c4ccccc4)CC3)cc2)c2cc(Cl)ccc2n1
[2]
  remaining at 24 h, 10 µM: 100%
[3]
  half-life: 177 min
[4]
  solubility at 4 h: 4030 µM (≈ 1960 µg/mL)
[1]
  MIC: 0.02 µM (≈ 0.00972 µg/mL)
[5]
  CC50 at 72 h: > 10 µM
[6]
  solubility at 4 h: > 2060 µM
[7]
  CC50 at 72 h: > 10 µM
[8]
  CC50 at 72 h: > 10 µM
[9]
  remaining at 24 h, 10 µM: 99%
[13]
  Activity: 0.48 log10CFU
[10]
  CC50 at 72 h: > 10 µM
[11]
  Papp at 5 h, 10 µM: 0.49 ×10⁻⁶ cm/s
[14]
  Activity: 2.46 log10CFU
[12]
  remaining at 24 h, 10 µM: 90.6%

## Cc1cc(OCC(=O)Nc2ccc(N3CCC(c4ccc(OC(F)(F)F)cc4)CC3)cc2)c2cc(Cl)ccc2n1
[1]
  MIC: 0.14 µM (≈ 0.0798 µg/mL)

## CCc1cc(OCC(=O)Nc2ccc(N3CCC(c4ccc(OC(F)(F)F)cc4)CC3)cc2)c2cc(Cl)ccc2n1
[1]
  MIC: 0.07 µM (≈ 0.0409 µg/mL)

## CCc1cc(OCC(=O)Nc2ccc(N3CCC(c4ccccc4)CC3)cc2)c2cc(OC)ccc2n1
[1]
  MIC: 0.08 µM (≈ 0.0396 µg/mL)

## CCc1cc(OCC(=O)Nc2ccc(N3CCC(c4ccc(OC(F)(F)F)cc4)CC3)cc2)c2cc(Br)ccc2n1
[1]
  MIC: 7.9 µM (≈ 4.97 µg/mL)

## Cc1cc(OCC(=O)Nc2ccc(N3CCC(c4ccc(OC(F)(F)F)cc4)CC3)cc2)c2cc(Br)ccc2n1
[1]
  MIC: 0.06 µM (≈ 0.0369 µg/mL)

## O=C(COc1cc(C(F)(F)F)nc2ccc(Cl)cc12)Nc1ccc(N2CCC(c3ccccc3)CC2)cc1
[1]
  MIC: 74 µM (≈ 40 µg/mL)

## CCc1cc(OCC(=O)Nc2ccc(N3CCC(c4ccccc4)CC3)cc2)c2cc(Br)ccc2n1
[1]
  MIC: 0.07 µM (≈ 0.0381 µg/mL)

## COc1ccc2nc(C(F)(F)F)cc(OCC(=O)Nc3ccc(N4CCC(c5ccccc5)CC4)cc3)c2c1
[1]
  MIC: 0.1 µM (≈ 0.0536 µg/mL)

## CCc1cc(OCC(=O)Nc2ccc(N3CCC(c4ccccc4)CC3)cc2)c2cc(Cl)ccc2n1
[1]
  MIC: 0.04 µM (≈ 0.02 µg/mL)

## NNC(=O)c1ccncc1 [ISONIAZID]
[1]
  MIC: 2.3 µM (≈ 0.315 µg/mL)

## CCc1nc2ccc(Cl)cn2c1C(=O)NCc1ccc(N2CCC(c3ccc(OC(F)(F)F)cc3)CC2)cc1 [TELACEBEC]
[1]
  MIC: 0.009 µM (≈ 0.00501 µg/mL)
